SMILES strings stand for the structures. Entries after “also recorded” stand apart in the source; their conditions may differ.

These results are taken from patent US9376406B2, “uPAR-uPA interaction inhibitors and methods for treating cancer” (Indiana University Research and Technology Corporation, priority 2011, dated 2016).

One test concerns the target T1, uPAATF binding to uPAR (Homo sapiens, UniProt Q03405).
T1 construct: uPAR comprising amino acids 1-277 was expressed in Drosophila S2 cells; made in house; host or cells: Drosophila S2 cells (uPAR)
The test is described as follows: Microtiter-based uPAATF ELISA. Particulars: inhibition of uPAATF binding to uPAR. (An ELISA detects its analyte on a solid surface through an enzyme-linked reagent.)

Test [1] has as its system H1299 cells. The test is described as follows: Invasion assay (Matrigel invasion chamber). In kind it is cell-based, human. Here is the method: (§1) Invasion Assay. Invasion assays are performed using the Biocoat Matrigel invasion chamber (BD Biosciences, Bedford, Mass.) according to the manufacturer's protocol. The undersurface of the inserts were coated with 30 ng/μl of fibronectin at 4° C. overnight. The filters were equilibrated with 0.5 ml serum-free medium for 2 h. After 4 h of serum starvation, cells were harvested and 5×10^4 cells/500 μl were plated onto the upper chamber of a Transwell filter in medium containing 0.1% FBS and the indicated compounds. 500 μl of 10% FBS medium containing the same amount of compounds or DMSO control were added to the lower chamber. After a 24 h incubation at 37° C. in 5% CO2, the filters were fixed and the number of cells that had invaded was determined as described for the migration assay.
(§2) Testing of the effects of IPR-465 on processes critical for metastasis in cell culture, starting with invasion, was undertaken. A Boyden chamber apparatus was used and results are shown in FIG. 3(a), where the bar groups correspond, from left to right, to H1299 invasion, H1299 cytotoxicity, MDA-MB-231 invasion, MDA-MB-231 cytotoxicity, and in FIG. 3(b), where the bar groups correspond, from left to right, to H1299 Boyden Chamber, H1299 wound healing, H1299 cytotoxicity, MDA-MB-231 Boyden Chamber, MDA-MB-231 wound healing, MDA-MB-231 cytotoxicity.
(§3) Ten fields of unit area on each membrane were counted for cell numbers (magnification, 200×). […] The effect of the compound appears to be more pronounced in MDA-MB-231 cells compared with H1299. The level of toxicity of the compounds is measured at each concentration within the timescale of the invasion experiment to ensure that the observed effects are not due to cytotoxicity (FIG. 3(a)).
(§4) MDA-MB-231 cells were transfected with siRNAs for uPAR, control siRNA (control) or with transfection reagent only (mock). After 48 h, cells were lysed and analysed by immunoblotting.

The test system of test [2] is MDA-MB-231 cells. The test is described as follows: Invasion assay (Matrigel invasion chamber). In kind it is cell-based, human. The method, then: as §1, §2, §3, §4
For test [3], the system named is H1299 cells. The test is described as follows: Transwell (Boyden chamber) migration assay. It is filed as cell-based, human. The method, then: (§5) Transwell Migration Assay. A 24 well transwell plates (Costar, Corning, N.Y.) were coated with fibronectin. After 4 h of serum starvation, medium containing the same amount of compounds or DMSO were added to the upper chamber and incubated at 37° C. for 8 h. The number of migrated cells was counted in 10 separate 200×fields and averaged over three independent experiments. Cytotoxicity of the compounds on the cells was measured at the same concentrations used in the migration assay during the same incubation time. MTT was added 2 h before measuring.
as §5, with “A” for “Transwell Migration Assay. A”, “30 ng/μl of fibronectin at 4° C. overnight. 500 μl of 10% FBS RPMI-1640 medium containing compounds or 1% DMSO control was added to the lower chamber.” for “fibronectin.”, “starvation, 5×10^4 cells in 250 μl of 0.1% FBS” for “starvation,”, “h. […]” for “h.”, “time,” for “time.”, “measuring. […]” for “measuring.”

In test [4] the test system is MDA-MB-231 cells. The test is described as follows: Transwell (Boyden chamber) migration assay. It is filed as cell-based, human. Here is the method:
as §5
as §5, with “A” for “Transwell Migration Assay. A”, “30 ng/μl of fibronectin at 4° C. overnight. 500 μl of 10% FBS RPMI-1640 medium containing compounds or 1% DMSO control was added to the lower chamber.” for “fibronectin.”, “starvation, 5×10^4 cells in 250 μl of 0.1% FBS” for “starvation,”, “h. […]” for “h.”, “time,” for “time.”, “measuring. […]” for “measuring.”

The subject of test [5] is H1299 cells. The test is described as follows: Adhesion assay. In kind it is cell-based, human. The conditions noted are these: H1299, fibronectin- and vitronectin-coated wells. Here is the method:
(§6) Adhesion Assay. 96-well plates were coated with 15 ng/μl fibronectin (Sigma, St. Louis, Mo.) at 4° C. overnight, then blocked with 0.5% BSA in PBS for 1 h. After starving with serum-free medium for 3 h, H1299 or MDA-MB-231 (2.5×10^5 cells/ml) were trypsinized and suspended in 100 μl of 0.1% FBS medium with various concentrations of uPAR compounds or DMSO control at 37° C. for 90 min. Medium was then carefully suctioned out from each well. Each well was washed three times with PBS. MTT-assay was used to determine the number of remaining cells (adherent cells).
(§7) The numbers of attached cells were quantified by MTT assay. Adherent cells are also quantified with fluorescence. […] The lack of inhibition was found both on fibronectin- and vitronectin-coated wells.

In test [6] the test system is MDA-MB-231 cells. The test is described as follows: Adhesion assay. The conditions noted are these: MDA-MB-231, fibronectin- and vitronectin-coated wells. It is filed as cell-based, human. The method, then: as §6, §7

T1 sequence (Q03405 23-299): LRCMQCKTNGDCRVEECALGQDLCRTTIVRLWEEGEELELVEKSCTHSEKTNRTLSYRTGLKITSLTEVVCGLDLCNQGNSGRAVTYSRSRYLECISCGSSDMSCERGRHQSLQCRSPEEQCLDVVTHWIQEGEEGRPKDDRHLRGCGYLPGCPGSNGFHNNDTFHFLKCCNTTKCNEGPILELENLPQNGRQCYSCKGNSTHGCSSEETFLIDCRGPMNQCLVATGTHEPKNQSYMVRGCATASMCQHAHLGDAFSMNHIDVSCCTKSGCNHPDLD
Experimental for uPAATF binding to uPAR: Microtiter-Based ELISA. The competition-binding assays were performed by incubating the proteins with inhibitors prior to binding to the immobilized proteins. Medium to high-binding microplates were coated and incubated for 1 hour at 4° C. with 100 μL of 2 μg/mL of uPAATF in 1×PBS for immobilization. A 1:1 mixture of Superblock® buffer in PBS (Thermoscientific) with 0.04 M NaH2PO4 and 0.3 M NaCl buffer were used for blocking Following the incubation and washing steps, uPA1310 biotinylated antibody (R&D Systems, MN) in 1% BSA 1×PBS buffer (100 μL/well) was added to the wells and incubated for 1-2 hours to allow for the detection of bound uPAR. In the presence of streptavidin-peroxidase and hydrogen peroxide signal was detected on an EnVision® Multilabel Plate Readers (PerkinElmer).

With `CC1CC(C)CN(c2cc(Nc3ccccc3C(=O)O)c3c4c(onc24)-c2ccccc2C3=O)C1` (centres unmarked) [IPR-456], the IC50 (usually the concentration at which inhibition is half-maximal) was about 10 µM on uPAATF binding to uPAR; about 50 µM in the test with H1299 cells [1] (Homo sapiens, NCI-H1299); about 50 µM in the test with MDA-MB-231 cells [2] (Homo sapiens, MDA-MB-231). Moreover, the “number of cells able to invade through the membrane” value in the test with H1299 cells [1] (H1299) and in the test on MDA-MB-231 cells [2] (MDA-MB-231) was “dose-dependent reduction” in each case. In addition, the influence on invasion entry with H1299 cells [1] (H1299 with siRNA knockdown of uPAR) and with MDA-MB-231 cells [2] (MDA-MB-231 with siRNA knockdown of uPAR) was “no additional influence on invasion” throughout. Besides, the “migration, Boyden chamber” value in the test on H1299 cells [3] and in the test on MDA-MB-231 cells [4] was “blocked migration in a dose-dependent manner” throughout. Also, the cell adhesion result with H1299 cells [5] and with MDA-MB-231 cells [6] was “no effect on cell adhesion; also recorded: lack an effect” in each case.
